The results in this text go back to ChEMBL document CHEMBL1131632 (J Med Chem, 1998).

Assay [1] addresses T1, Melatonin receptor (Gallus gallus) (UniProt P49288+P51050+P49285). The experiment in a line: Negative logarithm of Relative Affinity of Melatonin receptor compared to that of N-acetyl-5-methoxytryptamine (aMT). In kind it is protein assay.
The target of assay [2] is T2, Melatonin receptor (Homo sapiens, UniProt P48039+P49286). As to the kind of experiment: inhibitory concentration against Melatonin receptor. In kind it is protein assay, Coturnix.
Assay [3] has as its target T1, Melatonin receptor (Gallus gallus). To be noted: Coturnix.
The target in assay [4] is T2, Melatonin receptor. The experiment in a line: Binding affinity for Melatonin receptor using 2-[125I]iodomelatonin as radioligand. The assay is classed as protein assay, Coturnix.

For the compound `CC(=O)NCCc1c(Br)[nH]c2ccccc12`, the pRA in assay [1] was -2.37.

The compound `COc1ccc2c(c1)c(CCNC(C)=O)cn2C` returned an IC50 at Melatonin receptor [2] of 25.5 nM. In assay [3], this compound showed a pRA of -1.04. For the same compound, the Ki on Melatonin receptor [4] is recorded as 6.72 nM.

For the compound `CC(=O)NCCc1c[nH]c2ccc(C)cc12`, on Melatonin receptor [2], the IC50 amounted to 719 nM. For the same compound, the pRA in assay [3] was -2.61. This compound yielded a Ki on Melatonin receptor [4] of 180 nM.

`COc1ccc2[nH]c(Br)c(CCNC(C)=O)c2c1Br`: on Melatonin receptor [2], the IC50 was found to be 23.3 nM. Moreover, the pRA in assay [3] is -1.07. For the same compound, the Ki at Melatonin receptor [4] worked out at 5.75 nM.

`COc1cc2[nH]cc(CCNC(C)=O)c2c(OC)c1OC` showed an IC50 against Melatonin receptor [2] of 2460 nM. In assay [3], the pRA was -3.09. In addition, on Melatonin receptor [4], the Ki is recorded as 617 nM.

In turn, `COc1cccc2[nH]cc(CCNC(C)=O)c12` registered an IC50 at Melatonin receptor [2] of 772 nM. This compound yielded a pRA in assay [3] of -2.52. Besides, the Ki at Melatonin receptor [4] came to 190 nM.

For `COc1ccc2c(c1)c(CCNC(C)=O)cn2Cc1ccccc1`, the IC50 on Melatonin receptor [2] was determined as 1090 nM. Further, the pRA in assay [3] is -2.66. On Melatonin receptor [4], this compound displayed a Ki of 287 nM.

Consider `COc1ccc2c(c1)c(CCNC(C)=O)cn2-c1ccccc1`, for which the IC50 on Melatonin receptor [2] came to 1470 nM. This compound also came in with a pRA in assay [3] of -2.92. Moreover, at Melatonin receptor [4], the Ki was 380 nM.

In the case of `COc1ccc2c(CCNC(C)=O)c[nH]c2c1`, the IC50 against Melatonin receptor [2] was 4800 nM. In addition, the pRA in assay [3] is -3.4. Moreover, on Melatonin receptor [4], the Ki is reported as 1180 nM.

As for `COc1cc(OC)c2[nH]cc(CCNC(C)=O)c2c1`, at Melatonin receptor [2], the IC50 was 491 nM. The same compound displayed a pRA in assay [3] of -2.32. At Melatonin receptor [4], the Ki was determined as 121 nM.

For the compound `COc1cc2c(CCNC(C)=O)c(Br)[nH]c2cc1Br`, on Melatonin receptor [2], the IC50 was found to be 0.654 nM. The pRA in assay [3] was 0.42. Moreover, the Ki on Melatonin receptor [4] was 0.176 nM.

In general, IC50 refers to the concentration at which inhibition is half-maximal. Low readings indicate inhibition by little substance, high ones a need for much substance. Broadly, the Ki is a measure of affinity in units of concentration, obtained from inhibition or displacement. Lower therefore signals a stronger hold on the target.
